Measurements from patent publication US12398107B2, “Fungicidal nitroanilino substituted pyrazoles” (FMC Corporation, priority 2018, dated 2025).

Tests used:
Type in all cases: in vivo
Septoria tritici = test: Test A: wheat leaf blotch, preventive spray on wheat seedlings; details: 50 ppm, 100 = 100% disease control, 0 = no control relative to controls
Summary of the method: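 Compounds were suspended in acetone/water (50/50) with 250 ppm PEG400 and sprayed to run-off on wheat seedlings. The next day the seedlings were inoculated with Septoria tritici spores, held 48 h at 24 °C in saturated humidity, then 17 days at 20 °C. Disease control was rated 0–100 relative to controls.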

[1] = test system: Puccinia recondita f. sp. tritici; test: Test B: wheat leaf rust, preventive spray on wheat seedlings; details: 50 ppm, 100 = 100% disease control, 0 = no control relative to controls
Summary of the method: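 Compounds in acetone/water (50/50) with 250 ppm PEG400, sprayed to run-off on wheat seedlings at stated ppm; inoculated next day with P. recondita spores. Held 24 h saturated at 20° C., then 7 days in growth chamber at 20° C.; rating 0–100 = % disease control vs controls.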

[2] = test system: Blumeria graminis f. sp. tritici; test: Test C: wheat powdery mildew, preventive spray on wheat seedlings; details: 50 ppm, rated after 8 days, 100 = 100% disease control, 0 = no control
Summary of the method: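 Compound dissolved in acetone (3% of final volume), then suspended in 50/50 acetone/water with 250 ppm PEG400 and sprayed to run-off on wheat seedlings. Inoculated next day with B. graminis f. sp. tritici spore dust, kept 8 days at 20° C; visual rating, 100 = full control, 0 = none, relative to controls.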

Phakopsora pachyrhizi = test: Test D: Asian soybean rust, preventive spray on soybean seedlings; details: 50 ppm, 100 = 100% disease control, 0 = no control
Summary of the method: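 Soybean seedlings sprayed to run-off with compound suspension (ppm, in 50/50 acetone/water with 250 ppm PEG400), inoculated next day with P. pachyrhizi spores, held 24 h saturated at 22°C then 8 days at 22°C. Visual rating 0-100% disease control relative to controls.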

Botrytis cinerea = test: Test E: tomato Botrytis, preventive spray on tomato seedlings; details: 50 ppm, 100 = 100% disease control, 0 = no control
Summary of the method: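 Tomato seedlings sprayed to run-off with compound (ppm) in acetone/water with 250 ppm PEG400, then inoculated next day with B. cinerea spores. Held 48 h at 20 °C in saturated atmosphere, then 3 days at 24 °C. Visual rating 0–100% disease control relative to untreated controls.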

Alternaria solani = test: Test F: tomato early blight, preventive spray on tomato seedlings; details: 50 ppm, 100 = 100% disease control, 0 = no control
Summary of the method: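 Compounds in acetone/water (50/50) with 250 ppm PEG400, dosed in ppm, sprayed to run-off on tomato seedlings; next day inoculated with A. solani spores. Held 48 h saturated at 27° C, then 3 days at 20° C; visual rating 0–100% disease control relative to controls.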

Cc1ccc(Nc2c(-c3ccc(C#N)cc3Cl)c(C)nn2C)c([N+](=O)[O-])c1 [Compound 14] was tested, and the “Test A disease control rating (wheat leaf blotch)” value (from here on “Test A disease control rating”) (Septoria tritici) was 100%, the “Test B disease control rating (wheat leaf rust)” value (shortened to “Test B disease control rating”) [1] was 97% and the “Test C disease control rating (wheat powdery mildew)” value (from here on “Test C disease control rating”) [2] was 83%. For the same compound, the “Test D disease control rating (Asian soybean rust)” value (“Test D disease control rating” below) (Phakopsora pachyrhizi) was 48%, the “Test E disease control rating (tomato Botrytis)” value (“Test E disease control rating” for short) (Botrytis cinerea) was 96% and the “Test F disease control rating (tomato early blight)” value (“Test F disease control rating” for short) (Alternaria solani) was 83%.

In the case of Cc1nn(C)c(Nc2c(Cl)cc(F)cc2[N+](=O)[O-])c1-c1ccc(Cl)cc1Cl [Compound 10], the “Test A disease control rating” value (Septoria tritici) is reported as 100%, the “Test B disease control rating” value [1] is reported as 99% and the “Test C disease control rating” value [2] is reported as 48%. For the same compound, the “Test D disease control rating” value (Phakopsora pachyrhizi) was 0%, the “Test E disease control rating” value (Botrytis cinerea) was 68% and the “Test F disease control rating” value (Alternaria solani) was 9%.

In the case of Cc1nn(C)c(Nc2ccccc2[N+](=O)[O-])c1-c1c(F)cc(F)cc1Cl [Compound 148], the “Test A disease control rating” value (Septoria tritici) is reported as 100%, the “Test B disease control rating” value [1] is reported as 99% and the “Test C disease control rating” value [2] is reported as 98%. The “Test D disease control rating” value (Phakopsora pachyrhizi) was 13%, the “Test E disease control rating” value (Botrytis cinerea) was 99% and the “Test F disease control rating” value (Alternaria solani) was 100%.

With COc1ccc(-c2c(C)nn(C)c2Nc2c(Cl)cccc2[N+](=O)[O-])c(C)c1 [Compound 35] the “Test A disease control rating” value (Septoria tritici) was 99%, the “Test B disease control rating” value [1] was 85% and the “Test C disease control rating” value [2] was 0%. The “Test D disease control rating” value (Phakopsora pachyrhizi) was 0%, the “Test E disease control rating” value (Botrytis cinerea) was 0% and the “Test F disease control rating” value (Alternaria solani) was 0%.

With Cc1nn(C)c(Nc2c(F)cc(F)cc2[N+](=O)[O-])c1-c1ccc(C#N)cc1Cl [Compound 120] the “Test A disease control rating” value (Septoria tritici) was 100%, the “Test B disease control rating” value [1] was 100% and the “Test C disease control rating” value [2] was 89%. The “Test D disease control rating” value (Phakopsora pachyrhizi) was 44%, the “Test E disease control rating” value (Botrytis cinerea) was 100% and the “Test F disease control rating” value (Alternaria solani) was 99%.

With COc1ccc(Nc2c(-c3ccc(C#N)cc3Cl)c(C)nn2C)c([N+](=O)[O-])c1 [Compound 124] the “Test A disease control rating” value (Septoria tritici) was 100%, the “Test B disease control rating” value [1] was 100% and the “Test C disease control rating” value [2] was 99%. For the same compound, the “Test D disease control rating” value (Phakopsora pachyrhizi) was 25%, the “Test E disease control rating” value (Botrytis cinerea) was 100% and the “Test F disease control rating” value (Alternaria solani) was 99%.

For Cc1nn(C)c(Nc2c(Cl)cc(Cl)cc2[N+](=O)[O-])c1-c1ccc(F)cc1Br [Compound 37], the “Test A disease control rating” value (Septoria tritici) was 100%, the “Test B disease control rating” value [1] was 100% and the “Test C disease control rating” value [2] was 98%. For the same compound, the “Test D disease control rating” value (Phakopsora pachyrhizi) was 0%, the “Test E disease control rating” value (Botrytis cinerea) was 88% and the “Test F disease control rating” value (Alternaria solani) was 78%.

For Cc1nn(C)c(Nc2c(Cl)cc(Cl)cc2[N+](=O)[O-])c1-c1ccc(F)cc1F [Compound 101], the “Test A disease control rating” value (Septoria tritici) was 100%, the “Test B disease control rating” value [1] was 99% and the “Test C disease control rating” value [2] was 89%. For the same compound, the “Test D disease control rating” value (Phakopsora pachyrhizi) was 44%, the “Test E disease control rating” value (Botrytis cinerea) was 99% and the “Test F disease control rating” value (Alternaria solani) was 0%.

With COc1ccc(-c2c(C)nn(C)c2Nc2c(F)cccc2[N+](=O)[O-])c(C)c1 [Compound 48] the “Test A disease control rating” value (Septoria tritici) was 100%, the “Test B disease control rating” value [1] was 95% and the “Test C disease control rating” value [2] was 89%. The “Test D disease control rating” value (Phakopsora pachyrhizi) was 0%, the “Test E disease control rating” value (Botrytis cinerea) was 97% and the “Test F disease control rating” value (Alternaria solani) was 97%.

Cc1nn(C)c(Nc2c(Cl)cccc2[N+](=O)[O-])c1-c1c(F)cccc1F [Compound 77] was tested, and the “Test A disease control rating” value (Septoria tritici) was 100%, the “Test B disease control rating” value [1] was 100% and the “Test C disease control rating” value [2] was 95%. For the same compound, the “Test D disease control rating” value (Phakopsora pachyrhizi) was 73%, the “Test E disease control rating” value (Botrytis cinerea) was 72% and the “Test F disease control rating” value (Alternaria solani) was 9%.

For Cc1nn(C)c(Nc2c(Cl)cc(F)cc2[N+](=O)[O-])c1-c1ccc(Cl)cc1F [Compound 176], the “Test A disease control rating” value (Septoria tritici) was 100%, the “Test B disease control rating” value [1] was 97% and the “Test C disease control rating” value [2] was 0%. For the same compound, the “Test D disease control rating” value (Phakopsora pachyrhizi) was 0%, the “Test E disease control rating” value (Botrytis cinerea) was 9% and the “Test F disease control rating” value (Alternaria solani) was 0%.

With Cc1nn(C)c(Nc2c(Cl)cc(Cl)cc2[N+](=O)[O-])c1-c1ccc(Cl)cc1Cl [Compound 146] the “Test A disease control rating” value (Septoria tritici) was 97%, the “Test B disease control rating” value [1] was 98% and the “Test C disease control rating” value [2] was 0%. For the same compound, the “Test D disease control rating” value (Phakopsora pachyrhizi) was 0%, the “Test E disease control rating” value (Botrytis cinerea) was 0% and the “Test F disease control rating” value (Alternaria solani) was 40%.

COc1cc(F)c(-c2c(C)nn(C)c2Nc2c(F)cc(Cl)cc2[N+](=O)[O-])c(F)c1 [Compound 86] was tested, and the “Test A disease control rating” value (Septoria tritici) was 100%, the “Test B disease control rating” value [1] was 100% and the “Test C disease control rating” value [2] was 98%. For the same compound, the “Test D disease control rating” value (Phakopsora pachyrhizi) was 77%, the “Test E disease control rating” value (Botrytis cinerea) was 96% and the “Test F disease control rating” value (Alternaria solani) was 99%.

Cc1nn(C)c(Nc2ccc(Cl)cc2[N+](=O)[O-])c1-c1c(F)cccc1Cl [Compound 22] was tested, and the “Test A disease control rating” value (Septoria tritici) was 100%, the “Test B disease control rating” value [1] was 93% and the “Test C disease control rating” value [2] was 97%. The “Test D disease control rating” value (Phakopsora pachyrhizi) was 0%, the “Test E disease control rating” value (Botrytis cinerea) was 99% and the “Test F disease control rating” value (Alternaria solani) was 64%.

Cc1cc(Cl)c(Nc2c(-c3ccc(F)cc3Br)c(C)nn2C)c([N+](=O)[O-])c1 [Compound 181] was tested, and the “Test A disease control rating” value (Septoria tritici) was 100%, the “Test B disease control rating” value [1] was 100% and the “Test C disease control rating” value [2] was 99%. For the same compound, the “Test D disease control rating” value (Phakopsora pachyrhizi) was 78%, the “Test E disease control rating” value (Botrytis cinerea) was 99% and the “Test F disease control rating” value (Alternaria solani) was 99%.

With Cc1cc(Cl)c(Nc2c(-c3ccc(C#N)cc3Cl)c(C)nn2C)c([N+](=O)[O-])c1 [Compound 156] the “Test A disease control rating” value (Septoria tritici) was 91%, the “Test B disease control rating” value [1] was 91% and the “Test C disease control rating” value [2] was 66%. The “Test D disease control rating” value (Phakopsora pachyrhizi) was 0%, the “Test E disease control rating” value (Botrytis cinerea) was 0% and the “Test F disease control rating” value (Alternaria solani) was 0%.

With Cc1nn(C)c(Nc2ccc(Cl)cc2[N+](=O)[O-])c1-c1ccc(F)cc1Cl [Compound 92] the “Test A disease control rating” value (Septoria tritici) was 100%, the “Test B disease control rating” value [1] was 96% and the “Test C disease control rating” value [2] was 89%. For the same compound, the “Test D disease control rating” value (Phakopsora pachyrhizi) was 0%, the “Test E disease control rating” value (Botrytis cinerea) was 100% and the “Test F disease control rating” value (Alternaria solani) was 79%.

In the case of CCc1nn(C)c(Nc2c(Cl)cccc2[N+](=O)[O-])c1-c1ccc(F)cc1F [Compound 17], the “Test A disease control rating” value (Septoria tritici) is reported as 100%, the “Test B disease control rating” value [1] is reported as 92% and the “Test C disease control rating” value [2] is reported as 94%. For the same compound, the “Test D disease control rating” value (Phakopsora pachyrhizi) was 0%, the “Test E disease control rating” value (Botrytis cinerea) was 99% and the “Test F disease control rating” value (Alternaria solani) was 9%.

In the case of Cc1nn(C)c(Nc2c(Br)cccc2[N+](=O)[O-])c1-c1ccc(C#N)cc1Cl [Compound 125], the “Test A disease control rating” value (Septoria tritici) is reported as 100%, the “Test B disease control rating” value [1] is reported as 96% and the “Test C disease control rating” value [2] is reported as 0%. For the same compound, the “Test D disease control rating” value (Phakopsora pachyrhizi) was 0%, the “Test E disease control rating” value (Botrytis cinerea) was 99% and the “Test F disease control rating” value (Alternaria solani) was 9%.

With Cc1nn(C)c(Nc2c(F)cc(F)cc2[N+](=O)[O-])c1-c1ccc(Cl)cc1F [Compound 13] the “Test A disease control rating” value (Septoria tritici) was 100%, the “Test B disease control rating” value [1] was 99% and the “Test C disease control rating” value [2] was 97%. The “Test D disease control rating” value (Phakopsora pachyrhizi) was 19%, the “Test E disease control rating” value (Botrytis cinerea) was 68% and the “Test F disease control rating” value (Alternaria solani) was 89%.

In the case of Cc1cccc([N+](=O)[O-])c1Nc1c(-c2ccc(F)cc2Cl)c(C)nn1C [Compound 117], the “Test A disease control rating” value (Septoria tritici) is reported as 99%, the “Test B disease control rating” value [1] is reported as 100% and the “Test C disease control rating” value [2] is reported as 95%. The “Test D disease control rating” value (Phakopsora pachyrhizi) was 0%, the “Test E disease control rating” value (Botrytis cinerea) was 99% and the “Test F disease control rating” value (Alternaria solani) was 76%.

With Cc1nn(C)c(Nc2ccc(OCC(F)F)cc2[N+](=O)[O-])c1-c1ccc(F)cc1Cl [Compound 36] the “Test A disease control rating” value (Septoria tritici) was 100%, the “Test B disease control rating” value [1] was 89% and the “Test C disease control rating” value [2] was 56%. For the same compound, the “Test D disease control rating” value (Phakopsora pachyrhizi) was 25%, the “Test E disease control rating” value (Botrytis cinerea) was 100% and the “Test F disease control rating” value (Alternaria solani) was 0%.
